Eight cell lines from the supplement of paper PMC10307832 can be followed below.

What all share (assay): relative viability (nuclei count vs DMSO), 5 days (fraction); higher = more cells survive
Compound in the assay “Carfilzomib + Olaparib”: CC(C)C[C@H](NC(=O)[C@H](CCc1ccccc1)NC(=O)CN1CCOCC1)C(=O)N[C@@H](Cc1ccccc1)C(=O)N[C@@H](CC(C)C)C(=O)[C@@]1(C)CO1 [Carfilzomib] + O=C(c1cc(Cc2n[nH]c(=O)c3ccccc23)ccc1F)N1CCN(C(=O)C2CC2)CC1 [Olaparib] (partner 8 µM)
In outline: (§1)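 Lung cancer cell lines in 1536-well plates were dosed by pin tool the day after seeding, either with one drug alone or with a fixed anchor-drug dose plus five library-drug doses (not always all listed) in √10 steps. After 5 days, cells were fixed and their nuclei stained in one step (final 0.05% Triton X-100, 1% formaldehyde, 1 ug/ml Hoechst), then counted on 4× images. Relative viability is the nuclei count in treated wells divided by that in vehicle wells. Values are medians of duplicate plates.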

Compound in the assay “Carfilzomib + OSI-027”: CC(C)C[C@H](NC(=O)[C@H](CCc1ccccc1)NC(=O)CN1CCOCC1)C(=O)N[C@@H](Cc1ccccc1)C(=O)N[C@@H](CC(C)C)C(=O)[C@@]1(C)CO1 [Carfilzomib] + COc1cccc2cc(-c3nc([C@H]4CC[C@H](C(=O)O)CC4)n4ncnc(N)c34)[nH]c12 [OSI-027] (partner 0.5 µM)
In outline: as §1

Compound in the assay “Olaparib + Pictilisib”: O=C(c1cc(Cc2n[nH]c(=O)c3ccccc23)ccc1F)N1CCN(C(=O)C2CC2)CC1 [Olaparib] + CS(=O)(=O)N1CCN(Cc2cc3nc(-c4cccc5[nH]ncc45)nc(N4CCOCC4)c3s2)CC1 [Pictilisib] (partner 1 µM)
In outline:
as §1

Compound in the assay “Crizotinib + Vorinostat”: C[C@@H](Oc1cc(-c2cnn(C3CCNCC3)c2)cnc1N)c1c(Cl)ccc(F)c1Cl [Crizotinib] + O=C(CCCCCCC(=O)Nc1ccccc1)NO [Vorinostat] (partner 1 µM)
In outline: as §1

Consider NCI-H1666, for which the relative viability amounted to 0.757 in the assay with Carfilzomib + Olaparib (first compound 0.001 µM); 0.782 with Carfilzomib + Olaparib (first compound 0.003162 µM); 0.75 in the assay with Carfilzomib + Olaparib (first compound 0.01 µM); 0.709 with Carfilzomib + Olaparib (first compound 0.03162 µM); 0.528 with Carfilzomib + Olaparib (first compound 0.1 µM); 0.807 with Carfilzomib + OSI-027 (first compound 0.001 µM). The relative viability in the assay with Carfilzomib + OSI-027 (first compound 0.003162 µM) is 0.87; with Carfilzomib + OSI-027 (first compound 0.01 µM), 0.955; with Carfilzomib + OSI-027 (first compound 0.03162 µM), 0.749; in the assay with Carfilzomib + OSI-027 (first compound 0.1 µM) it was 0.383; with Olaparib + Pictilisib (first compound 0.08 µM) it was 0.637; in the assay with Olaparib + Pictilisib (first compound 0.253 µM), 0.33. In addition, the relative viability with Olaparib + Pictilisib (first compound 2.53 µM) was 0.488; in the assay with Olaparib + Pictilisib (first compound 8 µM) it was 0.52; with Crizotinib + Vorinostat (first compound 0.01 µM) it was 1.14; in the assay with Crizotinib + Vorinostat (first compound 0.03162 µM), 0.999; in the assay with Crizotinib + Vorinostat (first compound 0.1 µM) it was 1.07; with Crizotinib + Vorinostat (first compound 0.3162 µM), 0.978. For the same cell line, the relative viability with Crizotinib + Vorinostat (first compound 1 µM) was found to be 0.955.
Turning to NCI-H1734, the relative viability in the assay with Carfilzomib + Olaparib (first compound 0.001 µM) was found to be 0.649; with Carfilzomib + Olaparib (first compound 0.003162 µM) it was 0.679; in the assay with Carfilzomib + Olaparib (first compound 0.01 µM), 0.666; in the assay with Carfilzomib + Olaparib (first compound 0.03162 µM) it was 0.547; with Carfilzomib + Olaparib (first compound 0.1 µM), 0.113; with Carfilzomib + OSI-027 (first compound 0.001 µM) it was 0.62. Moreover, the relative viability in the assay with Carfilzomib + OSI-027 (first compound 0.003162 µM) amounted to 0.683; with Carfilzomib + OSI-027 (first compound 0.01 µM), 0.585; with Carfilzomib + OSI-027 (first compound 0.03162 µM), 0.222; with Carfilzomib + OSI-027 (first compound 0.1 µM), 0.138; with Olaparib + Pictilisib (first compound 0.08 µM) it was 0.469; with Olaparib + Pictilisib (first compound 0.253 µM), 0.471. Besides, the relative viability turned out to be 0.419 with Olaparib + Pictilisib (first compound 2.53 µM); 0.336 with Olaparib + Pictilisib (first compound 8 µM); 0.866 with Crizotinib + Vorinostat (first compound 0.01 µM); 0.787 with Crizotinib + Vorinostat (first compound 0.03162 µM); 0.784 with Crizotinib + Vorinostat (first compound 0.1 µM); 0.807 with Crizotinib + Vorinostat (first compound 1 µM).
On to NCI-H1755, for which the relative viability was determined as 0.978 with Carfilzomib + Olaparib (first compound 0.001 µM); 0.934 in the assay with Carfilzomib + Olaparib (first compound 0.003162 µM); 0.875 with Carfilzomib + Olaparib (first compound 0.01 µM); 0.609 with Carfilzomib + Olaparib (first compound 0.03162 µM); 0.343 with Carfilzomib + Olaparib (first compound 0.1 µM); 0.707 with Carfilzomib + OSI-027 (first compound 0.001 µM). Further, the relative viability is 0.777 in the assay with Carfilzomib + OSI-027 (first compound 0.003162 µM); 0.746 with Carfilzomib + OSI-027 (first compound 0.01 µM); 0.65 in the assay with Carfilzomib + OSI-027 (first compound 0.03162 µM); 0.25 with Carfilzomib + OSI-027 (first compound 0.1 µM); 0.553 with Olaparib + Pictilisib (first compound 0.08 µM); 0.383 with Olaparib + Pictilisib (first compound 0.253 µM). Also, the relative viability in the assay with Olaparib + Pictilisib (first compound 2.53 µM) worked out at 0.405; with Olaparib + Pictilisib (first compound 8 µM), 0.338; with Crizotinib + Vorinostat (first compound 0.01 µM) it was 0.668; in the assay with Crizotinib + Vorinostat (first compound 0.03162 µM), 0.779; in the assay with Crizotinib + Vorinostat (first compound 0.1 µM) it was 0.743; with Crizotinib + Vorinostat (first compound 0.3162 µM), 0.757. The relative viability with Crizotinib + Vorinostat (first compound 1 µM) is 0.764.
With NCI-H1915, the relative viability in the assay with Carfilzomib + Olaparib (first compound 0.001 µM) stood at 0.292; with Carfilzomib + Olaparib (first compound 0.003162 µM) it was 0.265; with Carfilzomib + Olaparib (first compound 0.01 µM), 0.248; in the assay with Carfilzomib + Olaparib (first compound 0.03162 µM), 0.247; in the assay with Carfilzomib + Olaparib (first compound 0.1 µM), 0.058; with Carfilzomib + OSI-027 (first compound 0.001 µM) it was 0.596. The relative viability with Carfilzomib + OSI-027 (first compound 0.003162 µM) was 0.654; in the assay with Carfilzomib + OSI-027 (first compound 0.01 µM), 0.59; in the assay with Carfilzomib + OSI-027 (first compound 0.03162 µM) it was 0.457; with Carfilzomib + OSI-027 (first compound 0.1 µM), 0.0943; with Olaparib + Pictilisib (first compound 0.08 µM) it was 0.928; with Olaparib + Pictilisib (first compound 0.253 µM), 0.845. The relative viability with Olaparib + Pictilisib (first compound 2.53 µM) was 0.746; with Olaparib + Pictilisib (first compound 8 µM), 0.473; with Crizotinib + Vorinostat (first compound 0.01 µM), 0.601; in the assay with Crizotinib + Vorinostat (first compound 0.03162 µM) it was 0.518; with Crizotinib + Vorinostat (first compound 0.1 µM) it was 0.502; in the assay with Crizotinib + Vorinostat (first compound 0.3162 µM), 0.458. The relative viability with Crizotinib + Vorinostat (first compound 1 µM) amounted to 0.517.
NCI-H1944: the relative viability was 0.438 in the assay with Carfilzomib + Olaparib (first compound 0.001 µM); 0.513 with Carfilzomib + Olaparib (first compound 0.003162 µM); 0.441 with Carfilzomib + Olaparib (first compound 0.01 µM); 0.374 in the assay with Carfilzomib + Olaparib (first compound 0.03162 µM); 0.187 in the assay with Carfilzomib + Olaparib (first compound 0.1 µM); 0.389 in the assay with Carfilzomib + OSI-027 (first compound 0.001 µM). Also, the relative viability with Carfilzomib + OSI-027 (first compound 0.003162 µM) was determined as 0.489; with Carfilzomib + OSI-027 (first compound 0.01 µM) it was 0.474; with Carfilzomib + OSI-027 (first compound 0.03162 µM) it was 0.46; in the assay with Carfilzomib + OSI-027 (first compound 0.1 µM) it was 0.173; with Olaparib + Pictilisib (first compound 0.08 µM), 0.363; with Olaparib + Pictilisib (first compound 0.253 µM), 0.319. Also, the relative viability stood at 0.328 with Olaparib + Pictilisib (first compound 2.53 µM); 0.351 with Olaparib + Pictilisib (first compound 8 µM); 0.446 in the assay with Crizotinib + Vorinostat (first compound 0.01 µM); 0.508 with Crizotinib + Vorinostat (first compound 0.03162 µM); 0.493 in the assay with Crizotinib + Vorinostat (first compound 0.1 µM); 0.571 with Crizotinib + Vorinostat (first compound 0.3162 µM). Besides, the relative viability with Crizotinib + Vorinostat (first compound 1 µM) worked out at 0.54.
As for NCI-H1975, the relative viability in the assay with Carfilzomib + Olaparib (first compound 0.001 µM) turned out to be 0.828; with Carfilzomib + Olaparib (first compound 0.003162 µM), 0.825; with Carfilzomib + Olaparib (first compound 0.01 µM), 0.393; in the assay with Carfilzomib + Olaparib (first compound 0.03162 µM), 0.123; in the assay with Carfilzomib + Olaparib (first compound 0.1 µM) it was 0.118; with Carfilzomib + OSI-027 (first compound 0.003162 µM), 0.715. In addition, the relative viability with Carfilzomib + OSI-027 (first compound 0.01 µM) was 0.503; with Carfilzomib + OSI-027 (first compound 0.03162 µM), 0.0875; with Carfilzomib + OSI-027 (first compound 0.1 µM), 0.106; with Olaparib + Pictilisib (first compound 0.08 µM), 0.309; in the assay with Olaparib + Pictilisib (first compound 0.253 µM), 0.27; with Olaparib + Pictilisib (first compound 2.53 µM), 0.284. Besides, the relative viability in the assay with Olaparib + Pictilisib (first compound 8 µM) came to 0.266; in the assay with Crizotinib + Vorinostat (first compound 0.01 µM), 0.682; with Crizotinib + Vorinostat (first compound 0.03162 µM) it was 0.693; with Crizotinib + Vorinostat (first compound 0.1 µM), 0.695; with Crizotinib + Vorinostat (first compound 0.3162 µM), 0.708; with Crizotinib + Vorinostat (first compound 1 µM), 0.729.
For NCI-H1993, the relative viability in the assay with Carfilzomib + Olaparib (first compound 0.001 µM) was determined as 0.984; with Carfilzomib + Olaparib (first compound 0.003162 µM), 1.11; with Carfilzomib + Olaparib (first compound 0.01 µM), 1.1; with Carfilzomib + Olaparib (first compound 0.03162 µM) it was 1.04; in the assay with Carfilzomib + Olaparib (first compound 0.1 µM), 0.407; with Carfilzomib + OSI-027 (first compound 0.001 µM) it was 0.573. For the same cell line, the relative viability stood at 0.569 with Carfilzomib + OSI-027 (first compound 0.003162 µM); 0.576 with Carfilzomib + OSI-027 (first compound 0.01 µM); 0.443 with Carfilzomib + OSI-027 (first compound 0.03162 µM); 0.459 with Carfilzomib + OSI-027 (first compound 0.1 µM); 0.827 in the assay with Olaparib + Pictilisib (first compound 0.08 µM); 0.839 with Olaparib + Pictilisib (first compound 0.253 µM). Besides, the relative viability came to 0.719 in the assay with Olaparib + Pictilisib (first compound 2.53 µM); 0.869 in the assay with Olaparib + Pictilisib (first compound 8 µM); 0.699 with Crizotinib + Vorinostat (first compound 0.01 µM); 0.901 in the assay with Crizotinib + Vorinostat (first compound 0.03162 µM); 0.68 with Crizotinib + Vorinostat (first compound 0.1 µM); 0.468 with Crizotinib + Vorinostat (first compound 0.3162 µM). Moreover, the relative viability with Crizotinib + Vorinostat (first compound 1 µM) came to 0.555.
Regarding NCI-H2009, the relative viability worked out at 0.736 in the assay with Carfilzomib + Olaparib (first compound 0.001 µM); 0.732 with Carfilzomib + Olaparib (first compound 0.003162 µM); 0.729 with Carfilzomib + Olaparib (first compound 0.01 µM); 0.631 with Carfilzomib + Olaparib (first compound 0.03162 µM); 0.0565 with Carfilzomib + Olaparib (first compound 0.1 µM); 0.758 with Carfilzomib + OSI-027 (first compound 0.001 µM). Also, the relative viability amounted to 0.778 in the assay with Carfilzomib + OSI-027 (first compound 0.003162 µM); 0.631 in the assay with Carfilzomib + OSI-027 (first compound 0.01 µM); 0.111 with Carfilzomib + OSI-027 (first compound 0.03162 µM); 0.0867 with Carfilzomib + OSI-027 (first compound 0.1 µM); 0.996 with Olaparib + Pictilisib (first compound 0.08 µM); 0.71 in the assay with Olaparib + Pictilisib (first compound 0.253 µM). In addition, the relative viability in the assay with Olaparib + Pictilisib (first compound 2.53 µM) worked out at 0.693; in the assay with Olaparib + Pictilisib (first compound 8 µM) it was 0.475; in the assay with Crizotinib + Vorinostat (first compound 0.01 µM), 0.707; with Crizotinib + Vorinostat (first compound 0.03162 µM) it was 0.723; with Crizotinib + Vorinostat (first compound 0.1 µM), 0.63; with Crizotinib + Vorinostat (first compound 0.3162 µM), 0.756. Besides, in the assay with Crizotinib + Vorinostat (first compound 1 µM), the relative viability was determined as 0.76.
